The target in data set [1] is T1, Cannabinoid receptor 2 (Homo sapiens, UniProt P34972). The data set can be described thus: Displacement of [3H]CP55940 from human CB2 receptor expressed in CHO-K1 cell membrane by competitive displacement assay. Format: cell membranes. (In general: Displacement assays read how much labelled ligand stays bound in the presence of the test substance.)
Data set [2] is filed under the species Homo sapiens. The data set can be described thus: Selectivity ratio of EC50 for human CB1 receptor to EC50 for human CB2 receptor.
The species entered for data set [3] is Homo sapiens. The data set can be described thus: Selectivity ratio of Ki for human CB1 receptor to Ki for human CB2 receptor.
Data set [4] concerns the target T2, Cannabinoid receptor 1 (Homo sapiens, UniProt P21554). In words: Agonist activity at human CB1 receptor expressed in CHO-K1 cells assessed as inhibition of forskolin-stimulated cAMP production. It counts as functional, cell-based. (In general: cAMP levels reflect the balance of adenylyl cyclase and phosphodiesterase activity.)
The target in data set [5] is T1, Cannabinoid receptor 2. In words: Agonist activity at human CB2 receptor expressed in CHO-K1 cells assessed as inhibition of forskolin-stimulated cAMP production. It counts as functional, cell-based.
Data set [6] concerns the target T2, Cannabinoid receptor 1. The data set can be described thus: Displacement of [3H]CP55940 from human CB1 receptor expressed in CHO-K1 cell membrane by competitive displacement assay. It counts as cell membranes.
Data set [7] is described as follows: Antioxidant activity assessed as inhibition of lipid peroxidation. It counts as physicochemical.

T1 sequence (P34972 whole entry): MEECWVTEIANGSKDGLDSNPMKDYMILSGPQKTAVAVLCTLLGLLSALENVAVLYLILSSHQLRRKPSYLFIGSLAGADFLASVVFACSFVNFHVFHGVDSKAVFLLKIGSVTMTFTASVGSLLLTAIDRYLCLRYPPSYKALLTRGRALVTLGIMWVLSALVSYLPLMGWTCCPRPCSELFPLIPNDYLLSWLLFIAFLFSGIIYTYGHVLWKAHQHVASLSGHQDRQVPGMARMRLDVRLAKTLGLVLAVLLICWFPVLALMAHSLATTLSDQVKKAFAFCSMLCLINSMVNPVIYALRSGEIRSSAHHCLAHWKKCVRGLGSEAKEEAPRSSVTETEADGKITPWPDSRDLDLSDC
T2 sequence (P21554 whole entry): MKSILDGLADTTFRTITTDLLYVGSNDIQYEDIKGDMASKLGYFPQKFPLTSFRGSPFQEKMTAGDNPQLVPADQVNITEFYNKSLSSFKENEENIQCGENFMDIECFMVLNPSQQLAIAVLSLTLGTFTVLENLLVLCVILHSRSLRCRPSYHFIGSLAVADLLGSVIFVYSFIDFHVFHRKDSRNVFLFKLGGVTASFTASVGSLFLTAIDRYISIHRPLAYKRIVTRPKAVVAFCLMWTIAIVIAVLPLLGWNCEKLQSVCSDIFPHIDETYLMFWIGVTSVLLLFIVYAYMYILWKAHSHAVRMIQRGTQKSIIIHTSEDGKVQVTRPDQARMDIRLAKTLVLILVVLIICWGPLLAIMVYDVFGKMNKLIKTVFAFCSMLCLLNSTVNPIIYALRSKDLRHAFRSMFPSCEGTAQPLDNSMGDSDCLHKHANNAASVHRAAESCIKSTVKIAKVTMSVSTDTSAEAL

Take `CC(C)(C)c1cc(-c2csc(C3(N4CCCCC4)CCOCC3)n2)cc(C(C)(C)C)c1O`: the Ki was determined as 0.0497 µM on Cannabinoid receptor 2 [1] and 2.17 µM at Cannabinoid receptor 1 [6] (read-out: Ki). For the same molecule, the results for the Selectivity ratio in the data set listed under Homo sapiens [2] and in the data set filed under Homo sapiens [3] were 56 and 43, respectively. Also, the figures for the EC50 on Cannabinoid receptor 1 [4] and at Cannabinoid receptor 2 [5] were 2.26 µM and 0.04 µM, respectively.
As for `CC(C)(C)c1cc(-c2csc(C3(N)CCOCC3)n2)cc(C(C)(C)C)c1O`, the Ki is 2.7 µM on Cannabinoid receptor 2 [1] and 6.96 µM at Cannabinoid receptor 1 [6] (read-out: Ki). For the same molecule, in the data set listed under Homo sapiens [3], the Selectivity ratio came out at 2.6.
Turning to `CCN(CC)C1(c2nc(-c3cc(C(C)(C)C)c(O)c(C(C)(C)C)c3)cs2)CCOCC1`, the values for the Ki on Cannabinoid receptor 2 [1] and at Cannabinoid receptor 1 [6] (read-out: Ki) were 0.0774 µM and 3.3 µM, respectively. The Selectivity ratio was 56 in the data set filed under Homo sapiens [2] and 43 in the data set filed under Homo sapiens [3]. In addition, the EC50 was 4.04 µM on Cannabinoid receptor 1 [4] and 0.072 µM on Cannabinoid receptor 2 [5].
Regarding `CNC1(c2nc(-c3cc(C(C)(C)C)c(O)c(C(C)(C)C)c3)cs2)CCOCC1`, the Ki on Cannabinoid receptor 2 [1] worked out at 0.144 µM; at Cannabinoid receptor 1 [6] (read-out: Ki), 2.27 µM. Further, the Selectivity ratio in the data set filed under Homo sapiens [3] was 16.
On to `CN(C)C1(c2nc(-c3cc(C(C)(C)C)c(O)c(C(C)(C)C)c3)cs2)CCSCC1`, for which the Ki at Cannabinoid receptor 2 [1] stood at 0.0817 µM; at Cannabinoid receptor 1 [6] (read-out: Ki), 2.34 µM. The Selectivity ratio was 40 in the data set filed under Homo sapiens [2] and 29 in the data set listed under Homo sapiens [3]. Further, the EC50 at Cannabinoid receptor 1 [4] is 2.38 µM; at Cannabinoid receptor 2 [5] it was 0.0591 µM.
Turning to `CN(C)C1(c2nc(-c3cc(C(C)(C)C)c(O)c(C(C)(C)C)c3)co2)CCOCC1`, the Ki on Cannabinoid receptor 2 [1] came out at 0.0516 µM; on Cannabinoid receptor 1 [6] (read-out: Ki), 0.817 µM. Further, the figures for the Selectivity ratio in the data set filed under Homo sapiens [2] and in the data set listed under Homo sapiens [3] were 32 and 16, respectively. Also, the EC50 at Cannabinoid receptor 1 [4] came out at 1.4 µM; at Cannabinoid receptor 2 [5] it was 0.0436 µM.
Regarding `CC(C)(C)c1cc(-c2csc(C3(N4CCOCC4)CCOCC3)n2)cc(C(C)(C)C)c1O`, the Ki was 0.177 µM on Cannabinoid receptor 2 [1] and “Not Active” on Cannabinoid receptor 1 [6] (cho-k1).
Consider `CN(C)Cc1nc(-c2cc(C(C)(C)C)c(O)c(C(C)(C)C)c2)cs1`, for which the values for the inhibition constant (Ki) at Cannabinoid receptor 2 [1] and at Cannabinoid receptor 1 [6] (cho-k1) were 6.24 µM and “Not Active”, respectively.
For `CN(C)C1(c2nc(-c3cc(C(C)(C)C)c(O)c(C(C)(C)C)c3)cs2)CCOCC1`, the Ki on Cannabinoid receptor 2 [1] was 0.0294 µM; at Cannabinoid receptor 1 [6] (read-out: Ki) it was 0.857 µM. Also, the Selectivity ratio was 64 in the data set listed under Homo sapiens [2] and 30 in the data set filed under Homo sapiens [3]. In data set [7], the IC50 worked out at 0.5 µM. Further, the EC50 on Cannabinoid receptor 1 [4] worked out at 2.67 µM; at Cannabinoid receptor 2 [5], 0.042 µM.
On to `CN(C)C1(c2nc(-c3cc(C(C)(C)C)cc(C(C)(C)C)c3)cs2)CCOCC1`, for which the inhibitory constant (Ki) at Cannabinoid receptor 2 [1] is 0.127 µM; at Cannabinoid receptor 1 [6] (read-out: Ki), 4.71 µM. For the same molecule, in the data set listed under Homo sapiens [3], the Selectivity ratio is 37.
Turning to `CN1CCCCC1Cn1cc(C(=O)c2cc([N+](=O)[O-])ccc2I)c2ccccc21` (stereo not given), the Ki on Cannabinoid receptor 2 [1] turned out to be 0.0218 µM; at Cannabinoid receptor 1 [6] (read-out: Ki), 2.08 µM. Also, the Selectivity ratio in the data set filed under Homo sapiens [2] amounted to 63; in the data set listed under Homo sapiens [3], 95. Besides, the EC50 worked out at 1.04 µM at Cannabinoid receptor 1 [4] and 0.0164 µM on Cannabinoid receptor 2 [5].

The Ki is the dissociation constant of the complex between target and ligand, obtained from inhibition or displacement. In general, EC50 refers to the concentration giving half of the maximal effect. One may read the IC50 as the point on the concentration scale where inhibition reaches its midpoint.

The record behind these values is ChEMBL document CHEMBL3580586, “Novel azoles as potent and selective cannabinoid CB2 receptor agonists” (Bioorg Med Chem Lett, 2014).
